18 compounds from patent US10744150B2, “Cyclic dinucleotides as anticancer agents” (BRISTOL-MYERS SQUIBB COMPANY, priority 2017, dated 2020) can be followed below.

For experiment [1], the system named is NFkB. The experiment is described as follows: STING THP1 reporter assay, NF-κB pathway (SEAP, QUANTI-Blue). In kind it is cell-based. As to conditions: THP1-Dual cells, 10% human plasma, 100% activation = 100 μM cGAMP. The source says:
(§1) THP1-Dual™ cells were derived from the human THP-1 monocyte cell line by stable integration of two inducible reporter constructs. To this end, THP1-Dual™ cells allow the simultaneous study of the NF-κB pathway, by monitoring the activity of SEAP, and the IRF pathway by assessing the activity of a secreted luciferase (Lucia). Both reporter proteins are readily measurable in the cell culture supernatant when using QUANTI-Blue™, a SEAP detection reagent, and QUANTI-Luc™, a luciferase detection reagent.
(§2) THP1-Dual™ cells induce the activation of NF-κB in response to STING agonists. They also trigger the IRF pathway upon stimulation with STING agonists, such as cGAMP. Here, the THP-1-Dual cells were used to assess STING binders for function on the cellular level.
(§3) Serial dilutions of compounds in DMSO were added to low volume 384 well plates at 100 nl/well using an ECHO acoustic dispenser (Labcyte, model 550) to achieve final starting concentration of 100 μM in cell suspension. THP-1 Dual™ STING reporter cells (Invivogen, Dual cells cat # THPD-nfis) were added to the plates with compounds at 15,000 cells in 10 μL per well in RPMI media (Gibco, cat #11875) containing 10% human plasma in a low volume 384-well black wall clear bottom tissue culture plate (Corning, cat #3542) for SEAP assay and low volume solid white plate (Corning, cat #3826) for luciferase assay. One column of the plate was reserved for treatment with cGAMP at 100 μM for 100% activation calculation and one column for no treatment (DMSO only) for baseline activation. Plates were then incubated in 37° C. incubator at 5% CO2 for 20 hours.
(§4) In the SEAP assay, 5 μl of 2× QuantiBlue (Invivogen, cat # Rep-qb2) is added to 384 well black plates seeded with THP1 cells and incubated at 37° C. for 2 hours. Plates were read on the Envision (Perkin Elmer) at 620 nm wavelength (OD620). In the luciferase assay, 5 μl of Quantiluc (Invivogen, Rep-qlc2) is added to white 384 well plates seeded with THP1 cells and read at 5 minutes on the Envision (Perkin Elmer) using a luminescence protocol (RLU). For both cell lines, 100% activation was determined by value (RLU) of THP-1 Dual STING cells stimulated with 100 μM cGAMP (Invivogen, cat # TLRL-NACGA23-5).

Experiment [2] has as its target T1, STING AQ: His-TVMV-S-hSTING(155-341)-G230A-R293Q (Homo sapiens, UniProt Q86WV6, G230A/H232R/R293Q).
T1 construct: His-TVMV-S-hSTING(155-341)-G230A-R293Q
Description: STING HTRF binding assay (time resolved FRET competition), STING AQ. Conditions: 20 nM His-tagged STING cytoplasmic domain, 40 nM fluorescein-labeled cGAMP analog probe, one hour; read-out: HTRF Binding Assays IC50 STING AQ. How it is done:
(§5) A time resolved FRET-based competition binding assay was used to assess test article binding to STING WT and STING AQ. His-tagged STING cytoplasmic domain (WT or AQ) at a concentration of 20 nM was incubated with 2.5 nM Tb-labeled anti-His antibody, test compound, and fluorescein-labeled cGAMP analog probe (BioLog cat. no. C195) at a concentration of 200 nM (STING WT) or 40 nM (STING AQ) in PBS containing 0.005% Tween-20 and 0.1% BSA for one hour. Fluorescence at 495 nm and 520 nm was measured using an EnVision microplate reader to quantify FRET between Tb-labeled anti-His antibody and fluorescein-labeled probe. Background was defined as the signal obtained in the absence of STING protein, and background subtracted FRET ratios were normalized to the maximum signal obtained in the absence of test compound. These values were converted to a percent inhibition. Percent inhibition was determined for test compounds at 11 concentrations. The IC50, defined as the concentration of competing test compound needed to reduce specific binding of the probe by 50%, was calculated using the 4 parameter logistic equation to fit the data
(TR-FRET usually uses a lanthanide donor and a delayed reading to cut background.)

In experiment [3] the target is T2, STING WT: His-TVMV-S-hSTING(155-341)-H232R (Homo sapiens, UniProt Q86WV6, H232R).
T2 construct: His-TVMV-S-hSTING(155-341)-H232R
The experiment is described as follows: STING HTRF binding assay (time resolved FRET competition), STING WT. Conditions: 20 nM His-tagged STING cytoplasmic domain, 200 nM fluorescein-labeled cGAMP analog probe, one hour; read-out: HTRF Binding Assays IC50 STING WT. The method, then:
as §5

The subject of experiment [4] is IRF3. The experiment is described as follows: STING THP1 reporter assay, IRF pathway (secreted luciferase Lucia, QUANTI-Luc). The format is cell-based. As to conditions: THP1-Dual cells, 10% human plasma, 100% activation = 100 μM cGAMP, luciferase readout, read-out: THP1 Reporter Assays EC50 IRF3.
Text: as §1, §2, §3, §4
On the technique in general: Reporter assays use an easily measured gene product as a stand-in for the process of interest.

Setting [5] is: 20 hours, SEAP readout OD620, read-out: THP1 Reporter Assays EC50 NFkB.
The mark [6] stands for this setting: Homo sapiens, THP-1, 20 h, SEAP readout OD620, read-out: THP1 Reporter Assays EC50 NFkB.

Where two headings read alike, the source gives them in different places.

T1 sequence (Q86WV6 with tags, fused parts or gaps G230A/H232R/R293Q): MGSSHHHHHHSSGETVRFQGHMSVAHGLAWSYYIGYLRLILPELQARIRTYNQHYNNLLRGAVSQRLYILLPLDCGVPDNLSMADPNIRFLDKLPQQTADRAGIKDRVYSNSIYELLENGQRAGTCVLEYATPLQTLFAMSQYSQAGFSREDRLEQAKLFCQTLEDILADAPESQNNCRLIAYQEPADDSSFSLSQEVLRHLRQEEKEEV
T2 sequence (Q86WV6 with tags, fused parts or gaps H232R): as the sequence (Q86WV6 with tags, fused parts or gaps G230A/H232R/R293Q) above, with A99G, Q162R counted along it

In general, EC50 refers to the concentration giving half of the maximal effect. By IC50 is commonly meant the midpoint of a concentration-inhibition curve. `Nc1ncnc2c1ncn2[C@@H]1C[C@@H]2COP(=O)(S)O[C@H]3[C@@H](F)[C@H](n4cnc5c(N)ncnc54)O[C@@H]3COP(=O)(S)OC[C@H]21` (single isomer, unassigned) [Example 1-1]: the EC50 in experiment [1] (setting [5]) and in experiment [4] (20 hours) was more than 100 µM each time. Besides, the results for the IC50 in experiment [2] and in experiment [3] were 0.06 µM and 1.6 µM, respectively.
`Nc1ncnc2c1ncn2[C@@H]1C[C@@H]2COP(=O)(S)O[C@H]3[C@@H](F)[C@H](n4cnc5c(N)ncnc54)O[C@@H]3COP(=O)(S)OC[C@H]21` (single isomer, unassigned) [Example 1-2]: the results for the half-maximal effective concentration (EC50) in experiment [1] (setting [5]) and in experiment [4] (20 hours) were 6 µM and 3 µM, respectively. The IC50 in experiment [2] came out at 0.01 µM; in experiment [3] it was 0.09 µM.
Consider `Nc1ncnc2c1ncn2[C@@H]1C[C@@H]2COP(=O)(S)O[C@H]3[C@@H](F)[C@H](n4cnc5c(N)ncnc54)O[C@@H]3COP(=O)(S)OC[C@H]21` (single isomer, unassigned) [Example 2-1], for which the 50% effective concentration (EC50) in experiment [1] (setting [5]) and in experiment [4] (20 hours) was more than 100 µM each time. Besides, the concentration for half-maximal inhibition (IC50) in experiment [2] stood at 0.21 µM; in experiment [3] it was 24 µM.
As to `Nc1ncnc2c1ncn2[C@@H]1C[C@@H]2COP(=O)(S)O[C@H]3[C@@H](F)[C@H](n4cnc5c(N)ncnc54)O[C@@H]3COP(=O)(S)OC[C@H]21` (single isomer, unassigned) [Example 2-2], the EC50 was more than 100 µM in experiment [1] (setting [5]) and 85 µM in experiment [4] (20 hours). In addition, the half-inhibitory concentration (IC50) in experiment [2] worked out at 0.01 µM; in experiment [3] it was 0.88 µM.
As to `Nc1ncnc2c1ncn2[C@@H]1O[C@@H]2COP(O)(=S)OC[C@@H]3[C@@H](COP(O)(=S)O[C@H]2[C@H]1F)C[C@H]3n1cnc2c(O)nc3nccn3c21` (single isomer, unassigned) [Example 3-1], the 50% effective concentration (EC50) in experiment [1] (setting [5]) and in experiment [4] (20 hours) was more than 100 µM in each case. For the same compound, the half-maximal inhibitory concentration (IC50) came to 0.43 µM in experiment [2] and 15 µM in experiment [3].
Regarding `Nc1ncnc2c1ncn2[C@@H]1O[C@@H]2COP(O)(=S)OC[C@@H]3[C@@H](COP(O)(=S)O[C@H]2[C@H]1F)C[C@H]3n1cnc2c(O)nc3nccn3c21` (single isomer, unassigned) [Example 3-2], the EC50 in experiment [1] (setting [5]) and in experiment [4] (20 hours) was more than 100 µM in each case. Moreover, the 50% inhibitory concentration (IC50) in experiment [2] is 0.46 µM; in experiment [3], 4 µM.
As for `Nc1ncnc2c1ncn2[C@@H]1O[C@@H]2COP(O)(=S)OC[C@@H]3[C@@H](COP(O)(=S)O[C@H]2[C@H]1F)C[C@H]3n1cnc2c(O)nc3nccn3c21` (single isomer, unassigned) [Example 3-3], the values for the EC50 in experiment [1] (setting [5]) and in experiment [4] (20 hours) were 58 µM and 33 µM, respectively. Further, the half-inhibitory concentration (IC50) was 0.14 µM in experiment [2] and 0.18 µM in experiment [3].
Regarding `Nc1ncnc2c1ncn2[C@@H]1O[C@@H]2COP(O)(=S)OC[C@@H]3[C@@H](COP(O)(=S)O[C@H]2[C@H]1F)C[C@H]3n1cnc2c(O)nc3nccn3c21` (single isomer, unassigned) [Example 3-4], the 50% effective concentration (EC50) in experiment [1] (setting [5]) came out at 40 µM; in experiment [4] (20 hours), 31 µM. Also, the figures for the IC50 in experiment [2] and in experiment [3] were 0.09 µM and 1 µM, respectively.
Consider `Nc1ncnc2c1ncn2[C@@H]1C[C@@H]2COP(O)(=S)O[C@@H]3[C@H](O)[C@@H](COP(O)(=S)OC[C@H]21)O[C@H]3n1cnc2c(N)ncnc21` (single isomer, unassigned) [Example 4-1], for which the half-maximal effective concentration (EC50) in experiment [1] (setting [6]) was more than 100 µM; in experiment [4] (Homo sapiens, THP-1, 20 h), more than 100 µM. Further, the IC50 was 2.8 µM in experiment [2] and more than 100 µM in experiment [3].
As to `Nc1ncnc2c1ncn2[C@@H]1C[C@@H]2COP(O)(=S)O[C@@H]3[C@H](O)[C@@H](COP(O)(=S)OC[C@H]21)O[C@H]3n1cnc2c(N)ncnc21` (single isomer, unassigned) [Example 4-2], the half-maximal effective concentration (EC50) in experiment [1] (setting [5]) was determined as 87 µM; in experiment [4] (20 hours) it was 72 µM. For the same compound, the IC50 was 0.05 µM in experiment [2] and 3.7 µM in experiment [3].
With `Nc1ncnc2c1ncn2[C@@H]1O[C@@H]2COP(O)(=S)OC[C@@H]3[C@@H](COP(O)(=S)O[C@H]2[C@H]1F)C[C@H]3n1cnc2c(=O)[nH]cnc21` (single isomer, unassigned) [Example 5-1], the concentration giving a half-maximal response (EC50) in experiment [1] (setting [6]) and in experiment [4] (20 hours) was more than 100 µM in each case. Besides, the concentration for half-maximal inhibition (IC50) in experiment [2] was 0.1 µM; in experiment [3], 5.7 µM.
As to `Nc1ncnc2c1ncn2[C@@H]1O[C@@H]2COP(O)(=S)OC[C@@H]3[C@@H](COP(O)(=S)O[C@H]2[C@H]1F)C[C@H]3n1cnc2c(=O)[nH]cnc21` (single isomer, unassigned) [Example 5-2], the EC50 in experiment [1] (setting [5]) and in experiment [4] (20 hours) was more than 100 µM throughout. For the same compound, the IC50 in experiment [2] was determined as 0.02 µM; in experiment [3] it was 0.44 µM.
As for `Nc1ncnc2c1ncn2[C@@H]1O[C@@H]2COP(O)(=S)OC[C@@H]3[C@@H](COP(O)(=S)O[C@H]2[C@H]1F)C[C@H]3n1cnc2c(=O)[nH]cnc21` (single isomer, unassigned) [Example 5-3], the EC50 in experiment [1] (setting [5]) and in experiment [4] (20 hours) was more than 100 µM in each case. Also, the IC50 in experiment [2] was 0.04 µM; in experiment [3], 2.7 µM.
With `Nc1ncnc2c1ncn2[C@@H]1C[C@@H]2COP(O)(=S)O[C@H]3C[C@H](n4ccc5c(Cl)ncnc54)O[C@@H]3COP(=O)(S)OC[C@H]21` (single isomer, unassigned) [Example 6-2], the values for the concentration for half-maximal inhibition (IC50) in experiment [2] and in experiment [3] were 82.6 µM and more than 100 µM, respectively. For the same compound, the concentration for a half-maximal effect (EC50) in experiment [4] (20 hours) was more than 100 µM.
`Nc1ncnc2c1ncn2[C@@H]1C[C@@H]2COP(O)(=S)O[C@H]3C[C@H](n4ccc5c(Cl)ncnc54)O[C@@H]3COP(=O)(S)OC[C@H]21` (single isomer, unassigned) [Example 6-3]: the values for the IC50 in experiment [2] and in experiment [3] were 31.9 µM and more than 100 µM, respectively. Further, the EC50 in experiment [4] (20 hours) is more than 100 µM.
For `Nc1ncnc2c1ncn2[C@@H]1C[C@@H]2COP(O)(=S)O[C@H]3C[C@H](n4ccc5c(Cl)ncnc54)O[C@@H]3COP(=O)(S)OC[C@H]21` (single isomer, unassigned) [Example 6-4], the IC50 in experiment [2] is 14.8 µM; in experiment [3], more than 100 µM. Besides, in experiment [4] (20 hours), the EC50 is more than 100 µM.
Turning to `Nc1ncnc2c1ncn2[C@@H]1C[C@@H]2COP(O)(=S)O[C@H]3[C@H](F)[C@H](n4ccc5c(Cl)ncnc54)O[C@@H]3COP(O)(=S)OC[C@H]21` (single isomer, unassigned) [Example 7-2], the half-maximal effective concentration (EC50) in experiment [1] (setting [5]) and in experiment [4] (20 hours) was more than 100 µM each time. The 50% inhibitory concentration (IC50) in experiment [3] was more than 100 µM.
As to `Nc1ncnc2c1ccn2[C@@H]1O[C@@H]2COP(O)(=S)OC[C@@H]3[C@@H](COP(O)(=S)O[C@H]2[C@@H]1F)C[C@H]3n1cnc2c(N)ncnc21` (single isomer, unassigned) [Example 8-1], the EC50 in experiment [1] (setting [5]) is 23 µM; in experiment [4] (Homo sapiens, THP-1, 20 h), more than 100 µM. For the same compound, the IC50 in experiment [3] was more than 100 µM.
